Read-outs that look alike come from different tables or passages of the source.
Experiments:
[1] = steady state plasma total concentration, cited from earlier work
human serum albumin = biological target: T1, human serum albumin (Homo sapiens, UniProt P02768); test: Ligand affinity for albumin by albumin-shift cAMP assays (Schild regression); assay type: in vitro ADME; conditions: at 640 μM albumin, calculated from KA
T1 construct: For assays containing albumin from human serum; purchased MilliporeSigma A3782; host or cells: human serum
Description: Clonal HEK293 cells stably expressing either untagged human GIPR or human GLP-1R at various levels of receptor density were used for measurement of cAMP accumulation using the Gs Dynamic Assay and homogenous time-resolved fluorescence (62AM4PEJ, PerkinElmer). Corning 3570 white microtiter plates were used to collect 10 μL assay medium (DMEM, 31053, [Thermo Fisher Scientific], 2 mM Glutamax [35050, Thermo Fisher Scientific], 20 mM HEPES, 0.1% w/v bovine casein [4765, MilliporeSigma], and 250 μM isobutylmethylxanthine [IBMX] phosphodiesterase inhibitor) from a Multidrop Combi dispenser (Thermo Fisher Scientific). […] Vials of assay-ready cells were rapidly thawed from cryopreservation on the day of the assay. […] Time-resolved fluorescence was quantitated with a Pherastar FSX multilabel reader (BMG Labtech). Fluorescence data were analyzed by the ratio method, calibrated to external standards in a parallel processed plate, and reported as percent activation compared with vehicle minimum and native peptide maximum control wells. […]
Methods to quantify and predict the effect of albumin binding on biological activity in enzyme assays, receptor binding assays, and cell-based assays exist, but they are not currently widely employed ([57]–[59]). The general approach involves performing a bioassay in an albumin-free system and quantifying the effect of systematic titrations of albumin into the system. […]

T1 sequence (P02768 25-609): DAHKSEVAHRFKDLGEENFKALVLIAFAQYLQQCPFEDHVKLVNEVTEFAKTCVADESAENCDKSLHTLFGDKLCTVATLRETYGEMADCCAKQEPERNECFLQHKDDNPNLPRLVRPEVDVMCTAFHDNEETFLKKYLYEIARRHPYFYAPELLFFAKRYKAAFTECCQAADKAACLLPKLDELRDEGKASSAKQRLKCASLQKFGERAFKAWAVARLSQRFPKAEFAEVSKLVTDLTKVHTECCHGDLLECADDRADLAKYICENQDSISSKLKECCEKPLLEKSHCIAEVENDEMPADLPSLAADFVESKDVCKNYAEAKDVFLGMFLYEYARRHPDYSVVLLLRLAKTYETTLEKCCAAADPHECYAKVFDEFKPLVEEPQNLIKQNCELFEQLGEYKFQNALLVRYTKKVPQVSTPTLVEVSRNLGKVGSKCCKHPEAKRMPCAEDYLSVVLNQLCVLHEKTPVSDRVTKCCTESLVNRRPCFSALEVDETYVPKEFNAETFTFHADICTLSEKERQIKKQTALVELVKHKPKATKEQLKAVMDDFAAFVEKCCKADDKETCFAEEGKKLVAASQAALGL

predicted unbound fraction (human serum albumin): 0.00072
Compound: CC[C@H](C)[C@H](NC(=O)[C@H](Cc1ccccc1)NC(=O)[C@H](CCC(=O)O)NC(=O)[C@H](CCCCNC(=O)COCCOCCNC(=O)COCCOCCNC(=O)CC[C@H](NC(=O)CCCCCCCCCCCCCCCCC(=O)O)C(=O)O)NC(=O)[C@H](C)NC(=O)[C@H](C)NC(=O)[C@H](CCC(N)=O)NC(=O)CNC(=O)[C@H](CCC(=O)O)NC(=O)[C@H](CC(C)C)NC(=O)[C@H](Cc1ccc(O)cc1)NC(=O)[C@H](CO)NC(=O)[C@H](CO)NC(=O)[C@@H](NC(=O)[C@H](CC(=O)O)NC(=O)[C@H](CO)NC(=O)[C@@H](NC(=O)[C@H](Cc1ccccc1)NC(=O)[C@@H](NC(=O)CNC(=O)[C@H](CCC(=O)O)NC(=O)C(C)(C)NC(=O)[C@@H](N)Cc1cnc[nH]1)[C@@H](C)O)[C@@H](C)O)C(C)C)C(=O)N[C@@H](C)C(=O)N[C@@H](Cc1c[nH]c2ccccc12)C(=O)N[C@@H](CC(C)C)C(=O)N[C@H](C(=O)N[C@@H](CCCNC(=N)N)C(=O)NCC(=O)N[C@@H](CCCNC(=N)N)C(=O)NCC(=O)O)C(C)C [Semaglutide, semaglutide]
Css (total) ([1]; semaglutide 0.5 mg clinical dose): 15 nM | Css (total) ([1]; semaglutide 1 mg clinical dose): 30 nM

— PMC7526454 (JCI Insight, 2020)
